Data as given in patent publication US20090291964A1, “Potentiators of Antibacterial Activity” (priority 2003, published 2009).

What was measured:
Format in all cases: cell-based
S. aureus ATCC 29213 = test: Ethidium bromide efflux fluorescence assay; settings: EPIs at 4 times MEC for EtBr, A-106 at 100 μg/ml; versus control cells without EPI
Description: S. aureus cells were loaded with EtBr as described in Example 1. EPIs were used at 4XMEC (minimal effective concentration) (25 μg/ml reserpine; 100 μg/ml VX-710 (compound A-106 in Table A-2); 6.25 μg/ml VX-853 (compound C-9 in Table C-I), and no EPI control—as labeled). Fluorescence was continuously monitored over time at room temperature and results are an average of at least 3 replicates.
Ethidium bromide (EtBr) efflux assays with S. aureus were performed using the method described by Markham et al. (Markham, et al., “Multiple Novel Inhibitors of the NorA Multidrug Transporter of Staphylococcus aureus”, Antimicrob. Agents Chemother. 43:2404-2408 (1999)). […] Ethidium bromide efflux was determined by continuously monitoring fluorescence at an excitation wavelength of 530 nm and an emission wavelength of 600 nm in a black 96-well polystyrene plate with clear, flat bottom (Costar #3904, Cambridge, Mass.) using a SpectraMax Gemini spectrofluorimeter (Molecular Devices, Sunnydale, Calif.). […]
Markham et al., “Multiple Novel Inhibitors of the NorA Multidrug Transporter of Staphylococcus aureus”, Antimicrob. […] Since ethidium only fluoresces when it is bound to nucleic acid inside of cells, a decrease in fluorescence over time is due to active efflux. […]

[1] = system: E. faecalis clinical isolates; test: MIC90 studies: fluoroquinolone susceptibility of clinical isolate panel with EPI; settings: EPI at 50 μg/ml
Summary of the method: (§1)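 Fluoroquinolone MICs with efflux pump inhibitor measured against panels of resistant clinical isolates by NCCLS protocols. MIC90 taken across each panel. Oxacillin and vancomycin MICs run alongside to flag methicillin-resistant S. aureus and vancomycin-resistant E. faecalis isolates.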

[2] = system: S. aureus clinical isolates; test: as above; settings: EPI at 50 μg/ml
Summary of the method: as §1

[3] = system: wild type gram negative organisms (E. coli, P. aeruginosa, and H. influenzae); test: MIC of EtBr in presence and absence of EPI; settings: all wild type gram-negative organisms, compared with gram-positive
Text: EtBr is a general substrate for many different efflux pumps in bacteria. Markham et al., “Multiple Novel Inhibitors of the NorA Multidrug Transporter of Staphylococcus aureus”, Antimicrob. Agents Chemother. 43:2404-2408 (1999). Since EtBr is a non-specific DNA intercalator, the only known mechanism of resistance to EtBr is via efflux. Markham et al., “Multiple Novel Inhibitors of the NorA Multidrug Transporter of Staphylococcus aureus”, Antimicrob. Agents Chemother. 43:2404-2408 (1999).

[4] = E. faecalis clinical isolate 10
[5] = E. faecalis clinical isolate 11
[6] = E. faecalis clinical isolate 12
[7] = E. faecalis clinical isolate 13
[8] = E. faecalis clinical isolate 14
[9] = E. faecalis clinical isolate 15
[10] = E. faecalis clinical isolate 16
[11] = E. faecalis clinical isolate 17
[12] = E. faecalis clinical isolate 18
[13] = E. faecalis clinical isolate 19
[14] = E. faecalis clinical isolate 20
[15] = E. faecalis clinical isolate 21
[16] = E. faecalis clinical isolate 22
[17] = E. faecalis clinical isolate 23
[18] = E. faecalis clinical isolate 24
[19] = E. faecalis clinical isolate 25
[20] = E. faecalis clinical isolate 26

## COc1cc(C(=O)C(=O)N(C)[C@@H](Cc2ccc(Cl)cc2)C(=O)N(Cc2ccccc2)C(CCc2ccncc2)CCc2ccncc2)cc(OC)c1OC [C-9, (S)—N-Benzyl-2-(methyl-(2-oxo-2-(3,4,5-trimethoxyphenyl)acetyl)amino)-3-(4-chloro-phenyl)-N-(3-pyridin-4-yl-1-(2-pyridin-4-yl-ethyl)propyl)propionamide]
S. aureus ATCC 29213
  loss of EtBr fluorescence over time (FIG. 1): much more gradual loss of fluorescence
[1]; E. faecalis clinical isolate 1
  Ciprofloxacin MIC with EPI: 1 mg/L
  Norfloxacin MIC with EPI: 2 mg/L
[1]; E. faecalis clinical isolate 2
  Ciprofloxacin MIC with EPI: 1 mg/L
  Norfloxacin MIC with EPI: 2 mg/L
[1]; E. faecalis clinical isolate 3
  Ciprofloxacin MIC with EPI: 64 mg/L
  Norfloxacin MIC with EPI: 128 mg/L
[1]; E. faecalis clinical isolate 4
  Ciprofloxacin MIC with EPI: 64 mg/L
  Norfloxacin MIC with EPI: 128 mg/L
[1]; E. faecalis clinical isolate 5
  Ciprofloxacin MIC with EPI: 64 mg/L
  Norfloxacin MIC with EPI: 64 mg/L
[1]; E. faecalis clinical isolate 6
  Ciprofloxacin MIC with EPI: 1 mg/L
  Norfloxacin MIC with EPI: 8 mg/L
[1]; E. faecalis clinical isolate 7
  Ciprofloxacin MIC with EPI: 1 mg/L
  Norfloxacin MIC with EPI: 2 mg/L
[1]; E. faecalis clinical isolate 8
  Ciprofloxacin MIC with EPI: 32 mg/L
  Norfloxacin MIC with EPI: 128 mg/L
[1]; E. faecalis clinical isolate 9
  Ciprofloxacin MIC with EPI: 1 mg/L
  Norfloxacin MIC with EPI: 2 mg/L
[1]; [4]
  Ciprofloxacin MIC with EPI: 64 mg/L
  Norfloxacin MIC with EPI: 64 mg/L
[1]; [5]
  Ciprofloxacin MIC with EPI: 32 mg/L
  Norfloxacin MIC with EPI: 64 mg/L
[1]; [6]
  Ciprofloxacin MIC with EPI: 1 mg/L
  Norfloxacin MIC with EPI: 2 mg/L
[1]; [7]
  Ciprofloxacin MIC with EPI: 0.5 mg/L
  Norfloxacin MIC with EPI: 2 mg/L
[1]; [8]
  Ciprofloxacin MIC with EPI: 0.5 mg/L
  Norfloxacin MIC with EPI: 2 mg/L
[1]; [9]
  Ciprofloxacin MIC with EPI: 2 mg/L
  Norfloxacin MIC with EPI: 4 mg/L
[1]; [10]
  Ciprofloxacin MIC with EPI: 1 mg/L
  Norfloxacin MIC with EPI: 4 mg/L
[1]; [11]
  Ciprofloxacin MIC with EPI: 1 mg/L
  Norfloxacin MIC with EPI: 2 mg/L
[1]; [12]
  Ciprofloxacin MIC with EPI: 64 mg/L
  Norfloxacin MIC with EPI: 128 mg/L
[1]; [13]
  Ciprofloxacin MIC with EPI: 1 mg/L
  Norfloxacin MIC with EPI: 4 mg/L
[1]; [14]
  Ciprofloxacin MIC with EPI: 1 mg/L
  Norfloxacin MIC with EPI: 2 mg/L
[1]; [15]
  Ciprofloxacin MIC with EPI: 1 mg/L
  Norfloxacin MIC with EPI: 4 mg/L
[1]; [16]
  Ciprofloxacin MIC with EPI: 64 mg/L
  Norfloxacin MIC with EPI: 128 mg/L
[1]; [17]
  Ciprofloxacin MIC with EPI: 32 mg/L
  Norfloxacin MIC with EPI: 64 mg/L
[1]; [18]
  Ciprofloxacin MIC with EPI: 32 mg/L
  Norfloxacin MIC with EPI: 64 mg/L
[1]; [19]
  Ciprofloxacin MIC with EPI: 64 mg/L
  Norfloxacin MIC with EPI: 128 mg/L
[1]; [20]
  Ciprofloxacin MIC with EPI: 64 mg/L
  Norfloxacin MIC with EPI: 128 mg/L
[1]; E. faecalis isolates, Table 5B
  trend in the reduction of MICs for ciprofloxacin and norfloxacin: less apparent
[2]; S. aureus isolates
  decrease in MIC of ciprofloxacin and norfloxacin: no significant (>2-fold) decrease in MIC
[2]; S. aureus clinical isolate 1
  Ciprofloxacin MIC with EPI: 1 mg/L
  Norfloxacin MIC with EPI: 8 mg/L
[2]; S. aureus clinical isolate 2
  Ciprofloxacin MIC with EPI: 0.5 mg/L
  Norfloxacin MIC with EPI: 1 mg/L
[2]; S. aureus clinical isolate 3
  Ciprofloxacin MIC with EPI: 1 mg/L
  Norfloxacin MIC with EPI: 4 mg/L
[2]; S. aureus clinical isolate 4
  Ciprofloxacin MIC with EPI: 64 mg/L
  Norfloxacin MIC with EPI: 128 mg/L
[2]; S. aureus clinical isolate 5
  Ciprofloxacin MIC with EPI: 1 mg/L
  Norfloxacin MIC with EPI: 2 mg/L
[2]; S. aureus clinical isolate 6
  Ciprofloxacin MIC with EPI: 32 mg/L
  Norfloxacin MIC with EPI: 128 mg/L
[2]; S. aureus clinical isolate 7
  Ciprofloxacin MIC with EPI: 0.5 mg/L
  Norfloxacin MIC with EPI: 2 mg/L
[2]; S. aureus clinical isolate 8
  Ciprofloxacin MIC with EPI: 1 mg/L
  Norfloxacin MIC with EPI: 4 mg/L
[2]; S. aureus clinical isolate 9
  Ciprofloxacin MIC with EPI: 1 mg/L
  Norfloxacin MIC with EPI: 4 mg/L
[2]; S. aureus clinical isolate 10
  Ciprofloxacin MIC with EPI: 16 mg/L
  Norfloxacin MIC with EPI: 64 mg/L
[2]; S. aureus clinical isolate 11
  Ciprofloxacin MIC with EPI: 32 mg/L
  Norfloxacin MIC with EPI: 64 mg/L
[2]; S. aureus clinical isolate 12
  Ciprofloxacin MIC with EPI: 0.25 mg/L
  Norfloxacin MIC with EPI: 1 mg/L
[2]; S. aureus clinical isolate 13
  Ciprofloxacin MIC with EPI: 64 mg/L
  Norfloxacin MIC with EPI: 128 mg/L
[2]; S. aureus clinical isolate 14
  Ciprofloxacin MIC with EPI: 64 mg/L
  Norfloxacin MIC with EPI: 128 mg/L
[2]; S. aureus clinical isolate 15
  Ciprofloxacin MIC with EPI: >64 mg/L
  Norfloxacin MIC with EPI: 256 mg/L
[3]
  activity against efflux of EtBr: much less active
